Data published in article PMC3114813 (Environmental Health Perspectives, 2011).
Residue numbers refer to the chain shown, from its start.

Experiments:
MDA-kb2 cells = settings: for Cytotoxic EC20 (μM) MDA-kb2: EC20 = concentration that produces a 20% effect
Protocol: (§1) MDA-kb2 cells are human breast cancer cells stably transfected with a firefly luciferase reporter gene that is driven by an androgen-response element–containing promoter ([Wilson et al. 2002]). Details of the modified assay were published previously ([Ermler et al. 2010]). Briefly, cells were seeded at a concentration of 1 × 10^5 cells/mL in phenol red–free Leibowitz-15 medium (Invitrogen Ltd., Paisley, UK) containing 10% (charcoal-stripped) fetal calf serum (Invitrogen Ltd.) in white luminometer plates and allowed to attach for 24 hr. Cells were then exposed to eight serial dilutions of selected pesticides with or without DHT (0.25 nM). After 24 hr, luciferase activity was determined with SteadyGlo assay reagent (Promega UK Ltd., Southampton, Hampshire, UK) and measured in a plate reader (FLUOstar Optima, BMG Labtech GmbH, Offenburg, Germany). […] All concentrations were tested in duplicate over two plates, and each pesticide was measured at least twice in separate experiments. For comparative purposes, luminescence was normalized to DHT alone at coexposure concentration (maximum response, 100%) and solvent-only (ethanol) controls (minimum response, 0%). […] Pesticides were initially tested over a concentration range of 0.64 nM–50 μM (5× dilutions) as a range-finding exercise. Subsequently, the concentration ranges were modified to reflect the potency and toxicity of each individual compound. […] Sixty percent of the pesticides were repeat tested using the same product but with new stock solutions and by a different experimenter.
(§2) To analyze antiandrogenic action, raw luminescence readings were normalized on a plate-by-plate basis to the means of the positive DHT controls (n = 8) and the solvent controls (n = 8) ([Ermler et al. 2010]). […] Specifically, a variety of nonlinear regression models were fitted independently to the same data set, and the best-fitting model was selected using a statistical goodness-of-fit criterion. […] Data considered to be statistically significant at p < 0.05 were analyzed using the best-fit approach as described above. All statistical analysis was performed using SAS statistical software (SAS Institute Inc., Cary, NC, USA). From the best-fitting model, we derived inhibitory concentrations for antiandrogenicity and effect concentrations for cytotoxicity.

[1] = stable on food commodities; ref EFSA 2007, 2010a, 2010b; cited from earlier work
androgen receptor (AR) [2] = molecular target: T1, androgen receptor (AR) (Homo sapiens, UniProt P10275); assay: cell-based; type: cell-based; settings: for IC20: coincubated with DHT 6.4 nM, 53 hr at 28°C, Neg = no response was observed, read-out: Antiandrogen IC20 (μM) YAS
T1 construct: expressed in transfected cells; host or cells: yeast (YAS strain)
T1 sequence (P10275 1-920): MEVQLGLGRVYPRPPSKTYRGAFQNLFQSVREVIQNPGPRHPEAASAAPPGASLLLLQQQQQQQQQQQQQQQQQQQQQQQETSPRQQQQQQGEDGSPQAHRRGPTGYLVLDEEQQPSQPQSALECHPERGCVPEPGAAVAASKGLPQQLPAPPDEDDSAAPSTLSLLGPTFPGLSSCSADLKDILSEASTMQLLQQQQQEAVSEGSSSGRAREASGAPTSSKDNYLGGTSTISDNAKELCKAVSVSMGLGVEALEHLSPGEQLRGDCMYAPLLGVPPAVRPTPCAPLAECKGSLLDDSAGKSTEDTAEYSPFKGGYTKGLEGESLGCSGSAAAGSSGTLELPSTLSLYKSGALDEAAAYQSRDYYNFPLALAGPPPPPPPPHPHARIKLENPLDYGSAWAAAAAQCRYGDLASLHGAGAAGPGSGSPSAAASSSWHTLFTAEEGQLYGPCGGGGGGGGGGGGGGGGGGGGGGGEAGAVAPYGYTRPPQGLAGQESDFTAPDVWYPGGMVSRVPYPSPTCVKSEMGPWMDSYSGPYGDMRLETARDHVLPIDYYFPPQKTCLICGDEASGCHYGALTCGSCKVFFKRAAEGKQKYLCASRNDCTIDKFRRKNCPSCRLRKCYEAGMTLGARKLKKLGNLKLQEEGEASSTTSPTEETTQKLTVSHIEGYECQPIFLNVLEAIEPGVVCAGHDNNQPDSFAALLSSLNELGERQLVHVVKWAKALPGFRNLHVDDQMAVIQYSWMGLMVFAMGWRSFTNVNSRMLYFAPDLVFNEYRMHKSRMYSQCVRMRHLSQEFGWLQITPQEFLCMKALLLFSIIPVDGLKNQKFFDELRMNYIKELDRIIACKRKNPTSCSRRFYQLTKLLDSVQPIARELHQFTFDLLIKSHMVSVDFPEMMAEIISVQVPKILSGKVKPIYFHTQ
Protocol: Briefly, stimulation of the transfected AR causes a color change in the media, which is measured by absorbance at 540 nm (Labsystems Multiskan Multisoft, Vienna, VA, USA). Plates were also measured at 620 nm to measure cell growth (turbidity) to check for any cytotoxic effects that may have occurred. […] Incubation time was 53 hr at 28°C. […] Pesticide serial dilutions were tested in duplicate over two plates and were tested in two separate experiments.
Specifically, a variety of nonlinear regression models were fitted independently to the same data set, and the best-fitting model was selected using a statistical goodness-of-fit criterion. […] Data considered to be statistically significant at p < 0.05 were analyzed using the best-fit approach as described above. All statistical analysis was performed using SAS statistical software (SAS Institute Inc., Cary, NC, USA). From the best-fitting model, we derived inhibitory concentrations for antiandrogenicity and effect concentrations for cytotoxicity.

yeast = assay: YAS, cytotoxicity (turbidity at 620 nm); type: cell-based; settings: for Cytotoxic EC20 (μM) YAS: EC20 = concentration that produces a 20% effect, yeast turbidity
Protocol: The methods for the YAS have been described previously ([Sohoni and Sumpter 1998]). Briefly, stimulation of the transfected AR causes a color change in the media, which is measured by absorbance at 540 nm (Labsystems Multiskan Multisoft, Vienna, VA, USA). Plates were also measured at 620 nm to measure cell growth (turbidity) to check for any cytotoxic effects that may have occurred. Pesticides were coincubated with DHT (6.4 nM). […] Incubation time was 53 hr at 28°C. […] Pesticide serial dilutions were tested in duplicate over two plates and were tested in two separate experiments.

androgen receptor (AR) [3] = molecular target: T2, androgen receptor (AR) (Homo sapiens, UniProt P10275, Q868H); type: cell-based; settings: androgenic in the absence of DHT; Neg = no response was observed
T2 construct: MDA-kb2 cells are human breast cancer cells stably transfected with a firefly luciferase reporter gene; endogenous in cells; host or cells: MDA-kb2 (human breast cancer cells)
T2 sequence (P10275 1-920 Q868H): T1 sequence (P10275 1-920) with Q868H
Protocol: as §1, §2

androgen receptor (AR) [4] = molecular target: T2, androgen receptor (AR); assay: cell-based; settings: for IC20: MDA-kb2, read-out: Antiandrogen IC20 (μM) MDA-kb2; for Antiandrogenic activity in the MDA-kb2 assay (in words): MDA-kb2 / 'our assay'; for ERR (environmental relevance ratio): total exposure score / IC20 (MDA-kb2), recalculated using experimental data
Protocol: as §1, §2

aromatase = test system: aromatase; design: method as in Vinggaard et al. 2000; settings: human placental microsomes; ref Vinggaard et al. 2000; cited from earlier work
[5] = design: method as in Lambright et al. 2000; Taxvig et al. 2007; settings: ref Lambright et al. 2000; Taxvig et al. 2007; cited from earlier work

| Compound | Cytotoxic EC20 (μM) MDA-kb2 (MDA-kb2 cells) | IC20 (androgen receptor (AR) [2]) | Cytotoxic EC20 (μM) YAS (yeast) | Androgen EC20 (μM) MDA-kb2 (androgen receptor (AR) [3]) | Antiandrogenic activity in the MDA-kb2 assay (in words) (androgen receptor (AR) [4]) | Aromatase inhibition (aromatase) | further results |
| --- | --- | --- | --- | --- | --- | --- | --- |
| CC1(C(=O)Nc2ccc(O)c(Cl)c2Cl)CCCCC1 [Fenhexamid] | 21.6 µM |  |  |  |  |  | Parent compound remaining on food commodities [1]: > 70% |
| COc1ccc(C(=CC(=O)N2CCOCC2)c2ccc(Cl)cc2)cc1OC [Dimethomorph] | > 25 µM | 38.5 µM | > 50 µM | Neg | antiandrogenic |  | IC20 (androgen receptor (AR) [4]): 0.263 µM; ERR (environmental relevance ratio) (androgen receptor (AR) [4]): 45.6; Parent compound remaining on food commodities [1]: > 70% |
| N#Cc1c[nH]cc1-c1cccc2c1OC(F)(F)O2 [Fludioxonil] | 28.5 µM |  | > 160 µM |  |  |  | Parent compound remaining on food commodities [1]: > 70% |
| CCCC1COC(Cn2cncn2)(c2ccc(Cl)cc2Cl)O1 (stereo not shown) [propiconazole] |  |  |  |  |  | inhibited aromatase |  |
| CC(C)(C)C(O)(CCc1ccc(Cl)cc1)Cn1cncn1 (stereo not shown) [Tebuconazole] | 38.9 µM |  |  |  |  |  | In vivo antiandrogen (in words) [5]: known in vivo antiandrogens |
| CC(C)(C)C(O)C(Oc1ccc(Cl)cc1)n1cncn1 (stereo not shown) [triadimenol] |  |  |  |  |  | inhibited aromatase |  |
| CC(C)(C)C(=O)C(Oc1ccc(Cl)cc1)n1cncn1 (stereo not shown) [triadimefon] |  |  |  |  |  | inhibited aromatase |  |
| CCCN(CCOc1c(Cl)cc(Cl)cc1Cl)C(=O)n1ccnc1 [Prochloraz] | 12.5 µM |  |  |  |  | inhibited aromatase |  |
| CON(C)C(=O)Nc1ccc(Cl)c(Cl)c1 [Linuron] | > 50 µM |  |  |  |  |  | In vivo antiandrogen (in words) [5]: known in vivo antiandrogens |
| CCOc1ccc2c(c1)C(C)=CC(C)(C)N2 [Ethoxyquin] | > 50 µM | 11.1 µM | > 200 µM | Neg | in vitro AR antagonists |  | IC20 (androgen receptor (AR) [4]): 10.7 µM; ERR (environmental relevance ratio) (androgen receptor (AR) [4]): 0.75 |
| Cc1ccc(N(SC(F)(Cl)Cl)S(=O)(=O)N(C)C)cc1 [Tolylfluanid] | 8.09 µM | 0.234 µM | 1.14 µM | Neg | lacked activity |  | Cytotoxicity in the MDA-kb2 assay (in words) (MDA-kb2 cells): cytotoxic; Antiandrogenic activity in the YAS (in words) (androgen receptor (AR) [2]; YAS): antiandrogenic; Cytotoxicity in the YAS assay (in words) (yeast; YAS): cytotoxic; Antiandrogen IC20 (μM) MDA-kb2 (androgen receptor (AR) [4]): Neg |
| CC12CC1(C)C(=O)N(c1cc(Cl)cc(Cl)c1)C2=O (stereo not shown) [Procymidone, reference compound] | > 50 µM | 0.956 µM | > 160 µM | Neg | in vitro AR antagonists |  | Cytotoxicity in the MDA-kb2 assay (in words) (MDA-kb2 cells): nontoxic; IC50 (androgen receptor (AR) [4]; MDA-kb2, internal quality control for antiandrogenicity): 0.53 µM; IC20 (androgen receptor (AR) [4]): 0.163 µM; ERR (environmental relevance ratio) (androgen receptor (AR) [4]): 202.5 |
| C=CCOC(Cn1ccnc1)c1ccc(Cl)cc1Cl (stereo not shown) [Imazalil] | 19.0 µM |  |  |  |  | inhibited aromatase |  |
